One assay concerns the target T1, HIV-1 RT K103N (Human immunodeficiency virus type 1 group M subtype B, UniProt P03366, K702N).
T1 construct: an HIV RT clone pKRT2 containing only the RT p66 gene regulated by the lac operon/trc promoter; made in house; host or cells: E. coli JM109, vector pKK233-2
The experiment in a line: Reverse transcriptase (RT) assay, K103N mutant. In kind it is biochemical. The procedure, abridged:
(§1)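 Recombinant HIV-1 RT p66/p51 heterodimer mutants were made by site-directed mutagenesis, expressed in E. coli JM109 and purified by hydroxyapatite chromatography. Cell-free activity used a poly r(C) template primed with biotinylated oligo d(G), with incorporation of 3H-dGTP into DNA as read-out.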

The next assay concerns the target T2, HIV-1 RT K103N/Y181C (Human immunodeficiency virus type 1 group M subtype B, UniProt P03366, K702N/Y780C).
T2 construct: an HIV RT clone pKRT2 containing only the RT p66 gene regulated by the lac operon/trc promoter; made in house; host or cells: E. coli JM109, vector pKK233-2
The experiment in a line: Reverse transcriptase (RT) assay, K103N/Y181C mutant. It counts as biochemical. The procedure, abridged: as §1

The next assay concerns the target T3, HIV-1 RT Y188L (Human immunodeficiency virus type 1 group M subtype B, UniProt P03366, Y787L).
T3 construct: an HIV RT clone pKRT2 containing only the RT p66 gene regulated by the lac operon/trc promoter; made in house; host or cells: E. coli JM109, vector pKK233-2
The experiment in a line: Reverse transcriptase (RT) assay, Y188L mutant. In kind it is biochemical. The procedure, abridged: as §1

Assay [1] concerns HIV coding for mutant reverse transcriptase K103N/P225H. The experiment in a line: ELISA (p24) assay of HIV replication in C8166 cell culture, K103N/P225H virus. In kind it is cell-based, HIV-1. The conditions noted are these: Human immunodeficiency virus 1, C8166, 72 h, read-out: EC50 K103N/P225H. How it is done:
(§2) Compounds of the invention were tested for their ability to inhibit HIV replication in cell culture in a 96-well plate assay. Complete RPMI 1640, consisting of RPMI 1640+10% fetal bovine serum, 10 μg/ml gentamycin and 10 μM β-mercaptoethanol was used for dilution of the compound as well as cell growth medium. The T lymphocyte cell line C8166 was infected at a multiplicity of infection of 0.001 with viruses coding for wild-type and mutant reverse transcriptase. Cells were then incubated for three days in the presence of serial dilutions of the compounds of the invention. The supernatant was pooled from eight replica wells and the concentration of extracellular p24 was determined using a commercially available HIV-1 p24 antigen assay kit (Beckman-Coulter®). The level of inhibition (% inhibition) was calculated with the following equation: [formula]
On the technique in general: An ELISA detects its analyte on a solid surface through an enzyme-linked reagent.

The next assay has as its target T4, HIV-1 RT wild-type (WT) (Human immunodeficiency virus type 1 group M subtype B, UniProt P03366).
T4 construct: an HIV RT clone pKRT2 containing only the RT p66 gene regulated by the lac operon/trc promoter; made in house; host or cells: E. coli JM109, vector pKK233-2
The experiment in a line: Reverse transcriptase (RT) assay, wild-type enzyme. It counts as biochemical.

Assay [2] deals with HIV coding for mutant reverse transcriptase K103N. The experiment in a line: ELISA (p24) assay of HIV replication in C8166 cell culture, K103N virus. It counts as cell-based, HIV-1. Particulars: Human immunodeficiency virus 1, C8166, 72 h, read-out: EC50 K103N. How it is done: as §2
A further assay deals with T5, HIV-1 RT Y181C (Human immunodeficiency virus type 1 group M subtype B, UniProt P03366, Y780C).
T5 construct: an HIV RT clone pKRT2 containing only the RT p66 gene regulated by the lac operon/trc promoter; made in house; host or cells: E. coli JM109, vector pKK233-2
The experiment in a line: Reverse transcriptase (RT) assay, Y181C mutant. It counts as biochemical. The procedure, abridged: as §1

The next assay concerns the target T6, HIV-1 RT Y188C (Human immunodeficiency virus type 1 group M subtype B, UniProt P03366, Y787C).
T6 construct: an HIV RT clone pKRT2 containing only the RT p66 gene regulated by the lac operon/trc promoter; made in house; host or cells: E. coli JM109, vector pKK233-2
The experiment in a line: Reverse transcriptase (RT) assay, Y188C mutant. It counts as biochemical. The text has this:
(§3) Among the enzymes for which Human Immunodeficiency Virus (HIV-1) encodes is a reverse transcriptase (1), so-named because it transcribes a DNA copy from an RNA template. This activity can be quantitatively measured in a cell-free enzyme assay and is based upon the observation that reverse transcriptase is able to use a synthetic template poly r(C) primed with a biotinylated oligo d(G) to transcribe a radio-labelled DNA strand utilising 3H-dGTP as a substrate. The assay described below utilises the wild-type enzyme (which is the predominant form of the enzyme observed in patients infected with HIV-1) and can also be used with mutant RT enzymes (for example, Y181C, prepared by site-directed mutagenesis in which the tyrosine residue at codon 181 has been replaced by a cysteine residue) in analogous assay conditions. This assay allows compounds to be evaluated for their effectiveness at inhibiting the mutant enzymes.
(§4) Some HIV-1 IIIB clone BH10 RT mutants were provided by Dr. C.-K. Shih (Boehringer Ingelheim Pharmaceutials Inc., U.S.A.) in the vector pKK233-2 (Pharmacia). Briefly an HIV RT clone pKRT2 containing only the RT p66 gene regulated by the lac operon/trc promoter was obtained from Dr. W. Summers (Yale University) (2). A variety of specific amino acid substitutions were introduced into the wild-type RT gene by site-directed mutagenesis. RT clones were subcloned into the pKK233-2 bacterial expression vector. Clones provided included wild-type, Val106Ala, Tyr181Cys, Tyr188Cys, Tyr188Leu, Gly190Ala and Pro236Leu. Others were made in-house by site-directed mutagenesis of the pKK233-2 RT clones including Lys103Asn, Lys103Asn/Tyr181Cys, Lys103Asn/Leu100Ile, Lys103Asn/Pro225His, and Lys103Asn/Val108Ile.
(§5) Purification of recombinant reverse transcriptase was performed using a combination of methods previously described (3). A single colony from a fresh plate of transformed JM109 cells was used to initiate growth of a pre-culture grown o/n at 37° C. Two liters of growth medium were inoculated with this pre-culture. At OD600˜1.5 (5-6 h at 37° C.), RT gene expression was induced with IPTG (1 mM final), and the fermentation was continued for a few more hours at 37° C. After centrifugation, supernatants were discarded while cell pellets were pooled and stored at −80° C. until purification. Cells were thawed at 4° C. overnight and suspended in lysis buffer (MES 50 mM pH 6, EDTA 1 mM, 10% v/v glyerol, 0.02% w/v OBG, 0.02% w/v sodium azide). Lysozyme was added and the mixture was incubated on ice for 40 minutes. After homogenization using a bounce in presence of lysozyme and sonication, the cells were centrifuged for 30 minutes. Supernatant (S1) was saved and stored at 4° C. The centrifuged pellet was resuspended in extraction buffer (MES 50 mM pH 6, KPO4 50 mM pH 6, KCl 100 mM, 10% v/v glycerol, 0.02% w/v OBG, 0.02% w/v sodium axide) and stirred for 30 minutes at 4° C. This second mixture was centrifuged again and the supernatant (S2) was saved. The above procedure was repeated 2 more times saving supernatants S3 and S4 and one last extraction was performed overnight (S5). Polymin P (0.005% final) was added to the combined supernatants to remove nucleic acids. This solution was stirred for 75 minutes at 4° C. and centrifuged for 1 h. The supernatant (SS1) was precipitated on ice with 20% w/v ammonium sulfate and stirred for 1 h at 4° C. The mixture was then centrifuged and the resulting supernatant (SS2) was precipitated with additional 40% w/v ammonium sulfate (60% total), stirred for 1 h and centrifuged again. The final pellet (P1) was stored overnight at 4° C. before undergoing purification the following day. All steps of the purification were performed at 4° C. unless otherwise stated.
(§6) Pellet (P1) was resuspended into MES 50 mM pH 6, KPO4 10 mM pH 6, KCl 100 mM, 10% v/v glycerol, 0.02% w/v OBG, 0.02% w/v sodium azide. The suspension was dialysis against the same buffer overnight using 12-14 kD MWCO dialysis tubing. […]

Assay [3] concerns HIV coding for mutant reverse transcriptase V106A. The experiment in a line: ELISA (p24) assay of HIV replication in C8166 cell culture, V106A virus. The conditions noted are these: Human immunodeficiency virus 1, C8166, 72 h, read-out: EC50 V106A. It counts as cell-based, HIV-1. How it is done:
as §2

The target of a further assay is T7, HIV-1 RT G190A (Human immunodeficiency virus type 1 group M subtype B, UniProt P03366, G789A).
T7 construct: an HIV RT clone pKRT2 containing only the RT p66 gene regulated by the lac operon/trc promoter; made in house; host or cells: E. coli JM109, vector pKK233-2
The experiment in a line: Reverse transcriptase (RT) assay, G190A mutant. It counts as biochemical.
Source text: as §3, §4, §5, §6

In general, IC50 refers to the midpoint of a concentration-inhibition curve. With `CCN1c2ncc(CCOc3cc[n+]([O-])c4ccccc34)cc2C(=O)N(C)c2ccc(F)nc21` [compound 11, 5,11-Dihydro-11-ethyl-2-fluoro-5-methyl-8-{2-{(1-oxido-4-quinolinyl)oxy}-ethyl}-6H-dipyrido[3,2-b:2′,3′-e][1,4]diazepin-6-one], the IC50 was 18 nM at HIV-1 RT K103N; 55 nM at HIV-1 RT K103N/Y181C; 661 nM at HIV-1 RT Y188L; 9.5 nM on HIV-1 RT wild-type (WT); 27 nM at HIV-1 RT Y181C; 6.6 nM at HIV-1 RT Y188C. Moreover, the IC50 at HIV-1 RT G190A came to 19 nM. For the same compound, the EC50 in assay [1] came to 2 nM; in assay [2], 2 nM; in [3], 28 nM.
On to `CCN1c2ncc(CCOc3cc[n+]([O-])c4ccccc34)cc2C(=O)N(C)c2cccnc21` [compound 21, 5,11-Dihydro-11-ethyl-5-methyl-8-{2-{(1-oxido-4-quinolinyl)oxy}ethyl}-6H-dipyrido[3,2-b:2′,3′-e][1,4]diazepin-6-one], for which the IC50 turned out to be 44 nM at HIV-1 RT K103N; 95 nM on HIV-1 RT K103N/Y181C; 1360 nM on HIV-1 RT Y188L; 17 nM on HIV-1 RT wild-type (WT); 51 nM on HIV-1 RT Y181C; 9.9 nM at HIV-1 RT Y188C. Moreover, on HIV-1 RT G190A, the IC50 came to 26 nM. In addition, the values for the EC50 in [1], in assay [2] and in [3] were 2.9 nM, 3.5 nM and 65 nM, respectively.
Turning to `CCN1c2ncc(CCOc3cc[n+]([O-])c4ccccc34)cc2C(=O)N(C)c2ccc(Cl)nc21` [compound 17, 2-Chloro-5,11-dihydro-11-ethyl-5-methyl-8-{2-{(1-oxido-4-quinolinyl)oxy}-ethyl}-6H-dipyrido[3,2-b:2′,3′-e][1,4]diazepin-6-one], the IC50 on HIV-1 RT K103N stood at 25 nM; at HIV-1 RT K103N/Y181C, 48 nM; at HIV-1 RT Y188L it was 198 nM; on HIV-1 RT wild-type (WT) it was 14 nM; on HIV-1 RT Y181C it was 29 nM; at HIV-1 RT Y188C, 8.1 nM. Moreover, the IC50 on HIV-1 RT G190A was found to be 25 nM. In addition, the EC50 in [1] was determined as 1.2 nM; in assay [2], 1.5 nM; in assay [3], 24 nM.
